Data published in US9914736B2, “TrKA kinase inhibitors, compositions and methods thereof” (Merck Sharp & Dohme Corp., priority 2014, dated 2018).
pIC50: −log10 of the molar value.

Molecular target: human TrkA receptor (Homo sapiens (Human), UniProt P04629)
Experiment: DiscoverX PathHunter TrkA functional assay
Type: cell-based
Conditions: U2OS cells expressing human TrkA-ProLink, Shc1-EA and p75NTR; compound 1 h, then NGF at ~80% of maximal response for 3 h; luminescence

human TrkA receptor, sequence (P04629 33-796): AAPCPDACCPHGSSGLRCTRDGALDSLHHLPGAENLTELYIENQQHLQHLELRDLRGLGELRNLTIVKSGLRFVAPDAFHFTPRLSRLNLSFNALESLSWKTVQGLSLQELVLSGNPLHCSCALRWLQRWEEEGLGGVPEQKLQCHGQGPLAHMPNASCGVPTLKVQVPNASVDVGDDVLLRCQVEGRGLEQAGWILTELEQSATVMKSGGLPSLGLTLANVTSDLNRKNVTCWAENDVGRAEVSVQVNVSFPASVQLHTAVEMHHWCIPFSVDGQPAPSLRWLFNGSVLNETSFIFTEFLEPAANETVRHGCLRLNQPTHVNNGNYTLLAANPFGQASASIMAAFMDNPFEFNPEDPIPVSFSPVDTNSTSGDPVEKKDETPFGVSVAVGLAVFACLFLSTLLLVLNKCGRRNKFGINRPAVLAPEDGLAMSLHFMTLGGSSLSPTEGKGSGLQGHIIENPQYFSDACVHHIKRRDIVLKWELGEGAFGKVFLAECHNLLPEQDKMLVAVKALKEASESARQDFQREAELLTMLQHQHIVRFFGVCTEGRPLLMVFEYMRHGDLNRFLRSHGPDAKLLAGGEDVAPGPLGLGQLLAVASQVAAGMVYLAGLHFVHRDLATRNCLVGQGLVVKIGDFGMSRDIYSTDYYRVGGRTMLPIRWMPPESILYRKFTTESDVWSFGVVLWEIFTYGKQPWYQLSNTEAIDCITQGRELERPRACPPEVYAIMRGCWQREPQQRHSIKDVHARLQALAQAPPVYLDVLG

pIC50	SMILES
8.77	Cn1ccc(-c2cc(C(=O)Nc3cc(Cc4cnc(N)cn4)nn3-c3ccc(F)cc3)ccc2C(F)(F)F)n1 [Compound 94, N-(3-((5-aminopyrazin-2-yl)methyl)-1-(4-fluorophenyl)-1H-pyrazol-5-yl)-3-(1-methyl-1H-pyrazol-3-yl)-4-(trifluoromethyl)benzamide]
6.74	Cc1cc(-c2nn(C)cc2NC(=O)c2ccc(C(F)(F)F)c(-c3ccn(C)n3)c2)[nH]n1 [Compound 74, N-(1,5′-dimethyl-1H,2′H-3,3′-bipyrazol-4-yl)-3-(1-methyl-1H-pyrazol-3-yl)-4-(trifluoromethyl)benzamide]
8.57	Cc1csc(-c2cc(C(=O)Nc3cc(-c4ccncc4)nn3-c3ccccc3)ccc2Cl)n1 [Compound 21, 4-chloro-3-(4-methyl-1,3-thiazol-2-yl)-N-(1-phenyl-3-pyridin-4-yl-1H-pyrazol-5-yl)benzamide]
6.46	O=C(Nc1cc(-c2ccncc2)nn1-c1ccc(F)cc1)c1ccc(C(F)(F)F)c(-c2ncns2)c1 [Compound 26, N-[1-(4-fluorophenyl)-3-pyridin-4-yl-1H-pyrazol-5-yl]-3-(1,2,4-thiadiazol-5-yl)-4-(trifluoromethyl)benzamide]
8.92	Cn1ccc(-c2cc(C(=O)Nc3cc(Cc4nnn(C)n4)nn3-c3ccc(F)cc3)c(F)cc2C(F)(F)F)n1 [Compound 85, 2-fluoro-N-(1-(4-fluorophenyl)-3-((2-methyl-2H-tetrazol-5-yl)methyl)-1H-pyrazol-5-yl)-5-(1-methyl-1H-pyrazol-3-yl)-4-(trifluoromethyl)benzamide]
8.47	O=C(Nc1cc(-c2ccc(CCO)cc2)nn1-c1ccc(F)cc1)c1cc(-c2ncccn2)c(C(F)(F)F)cc1F [Compound 101, 2-fluoro-N-(1-(4-fluorophenyl)-3-(4-(2-hydroxyethyl)phenyl)-1H pyrazol-5-yl)-5-(pyrimidin-2-yl)-4-(trifluoromethyl)benzamide]
9.11	Cn1ccc(-c2cc(C(=O)Nc3cc(Cc4nnnn4C)nn3-c3ccccc3)c(Cl)cc2C(F)(F)F)n1 [Compound 80, 2-chloro-5-(1-methyl-1H-pyrazol-3-yl)-N-(3-((1-methyl-1H-tetrazol-5-yl)methyl)-1-phenyl-1H-pyrazol-5-yl)-4-(trifluoromethyl)benzamide]
7.32	NC(=O)c1ccc(-c2cc(NC(=O)c3ccc(C(F)(F)F)cc3Cl)n(-c3ccccc3)n2)nc1 [Compound 4, 6-[5-({[2-chloro-4-(trifluoromethyl)phenyl]carbonyl}amino)-1-phenyl-1H-pyrazol-3-yl]pyridine-3-carboxamide]
7.05	CCn1ccc(-c2cc(C(=O)Nc3cc(C)nn3-c3ccc(F)cc3)ccc2C(F)(F)F)n1 [Compound 75, 3-(1-ethyl-1H-pyrazol-3-yl)-N-[1-(4-fluorophenyl)-3-methyl-1H-pyrazol-5-yl]-4-(trifluoromethyl)benzamide]
8.54	O=C(Nc1cc(-c2ccncc2)nn1-c1ccccc1)c1cc(-c2cc[nH]n2)c(C(F)(F)F)cc1Cl [Compound 39, 2-chloro-N-(1-phenyl-3-pyridin-4-yl-1H-pyrazol-5-yl)-5-(1H-pyrazol-3-yl)-4-(trifluoromethyl)benzamide]
8.25	Cc1cc(-n2nc(CC(=O)Nc3ccccn3)cc2NC(=O)c2ccc(C(F)(F)F)c(-c3ccn(C)n3)c2)[nH]n1 [Compound 22, N-{5′-methyl-3-[2-oxo-2-(pyridin-2-ylamino)ethyl]-2′H-1,3′-bipyrazol-5-yl}-3-(1-methyl-1H-pyrazol-3-yl)-4-(trifluoromethyl)benzamide]
7.22	O=C(NC1CC1)c1cc(NC(=O)c2ccc(C(F)(F)F)cc2Cl)n(-c2ccccc2)n1 [Compound 2, 5-({[2-chloro-4-(trifluoromethyl)phenyl]carbonyl}amino)-N-cyclopropyl-1-phenyl-1H-pyrazole-3-carboxamide]
7.74	CC(=O)n1cc(NC(=O)c2ccc(C(F)(F)F)c(-c3ccn(C)n3)c2)c(-c2ccccc2)n1 [Compound 33, N-(1-acetyl-3-phenyl-1H-pyrazol-4-yl)-3-(1-methyl-1H-pyrazol-3-yl)-4-(trifluoromethyl)benzamide]
8.80	CNC(=O)Cn1nnc(Cc2cc(NC(=O)c3ccc(C(F)(F)F)c(-c4ccn(C)n4)c3)n(-c3ccc(F)cc3)n2)n1 [Compound 78, N-[1-(4-fluorophenyl)-3-({2-[2-(methylamino)-2-oxoethyl]-2H-tetrazol-5-yl}methyl)-1H-pyrazol-5-yl]-3-(1-methyl-1H-pyrazol-3-yl)-4-(trifluoromethyl)benzamide]
6.96	O=C(Nc1cc(-c2ccncc2)nn1-c1ccc(F)cc1)c1ccc(Cl)c(-c2cc[nH]n2)c1 [Compound 42, 4-chloro-N-[1-(4-fluorophenyl)-3-pyridin-4-yl-1H-pyrazol-5-yl]-3-(1H-pyrazol-3-yl)benzamide]
8.26	Cc1cccc(-c2cc(C(=O)Nc3cc(-c4ccncc4)nn3-c3ccc(F)cc3)ccc2C(F)(F)F)n1 [Compound 30, N-[1-(4-fluorophenyl)-3-pyridin-4-yl-1H-pyrazol-5-yl]-3-(6-methylpyridin-2-yl)-4-(trifluoromethyl)benzamide]

pIC50	SMILES
7.48	Cn1ccc(-c2cc(C(=O)Nc3c4c(nn3-c3ccc(F)cc3)CCC4)ccc2C(F)(F)F)n1 [Compound 82, N-[2-(4-fluorophenyl)-2,4,5,6-tetrahydrocyclopenta[c]pyrazol-3-yl]-3-(1-methyl-1H-pyrazol-3-yl)-4-(trifluoromethyl)benzamide]
7.89	Cc1cnn(-c2ccccc2)c1NC(=O)c1cc(-c2ccn(C)n2)c(C(F)(F)F)cc1Cl [Compound 46, 2-chloro-N-(4-methyl-1-phenyl-1H-pyrazol-5-yl)-5-(1-methyl-1H-pyrazol-3-yl)-4-(trifluoromethyl)benzamide]
9.43	Cn1ccc(-c2cc(C(=O)Nc3cc(-c4ccncc4)nn3-c3ccccc3)c(Cl)cc2C(F)(F)F)n1 [Compound 36, 2-chloro-5-(1-methyl-1H-pyrazol-3-yl)-N-(1-phenyl-3-pyridin-4-yl-1H-pyrazol-5-yl)-4-(trifluoromethyl)benzamide]
7.85	O=C(Nc1cc(CO)nn1-c1ccc(F)cc1)c1cc(-c2ncccn2)c(C(F)(F)F)cc1F [Compound 97, 2-fluoro-N-(1-(4-fluorophenyl)-3-(hydroxymethyl)-1H-pyrazol-5-yl)-5-(pyrimidin-2-yl)-4-(trifluoromethyl)benzamide]
8.42	Cn1ccc(-c2cc(C(=O)Nc3cc(Cc4ccc[nH]c4=O)nn3-c3ccc(F)cc3)ccc2C(F)(F)F)n1 [Compound 98, N-(1-(4-fluorophenyl)-3-((2-oxo-1,2-dihydropyridin-3-yl)methyl)-1H-pyrazol-5-yl)-3-(1-methyl-1H-pyrazol-3-yl)-4-(trifluoromethyl)benzamide]
7.80	Cn1ccc(-c2cc(C(=O)Nc3cn(CCO)nc3-c3ccccc3)c(F)cc2C(F)(F)F)n1 [Compound 109, 2-fluoro-N-(1-(2-hydroxyethyl)-3-phenyl-1H-pyrazol-4-yl)-5-(1-methyl-1H-pyrazol-3-yl)-4-(trifluoromethyl)benzamide]
7.49	Cc1cc(-n2nc(C(=O)N(C)C)cc2NC(=O)c2ccc(C(F)(F)F)c(-c3ccn(C)n3)c2)[nH]n1 [Compound 7, N,N,5′-trimethyl-5-({[3-(1-methyl-1H-pyrazol-3-yl)-4-(trifluoromethyl)phenyl]carbonyl}amino)-2′H-1,3′-bipyrazole-3-carboxamide]
6.07	Cc1cccnc1-c1cc(C(=O)Nc2cc(-c3ccncc3)nn2-c2ccc(F)cc2)ccc1C(F)(F)F [Compound 31, N-[1-(4-fluorophenyl)-3-pyridin-4-yl-1H-pyrazol-5-yl]-3-(3-methylpyridin-2-yl)-4-(trifluoromethyl)benzamide]
7.68	O=C(Nc1cc(-c2ccncc2)nn1-c1ccccc1)c1ccc(C(F)(F)F)c(-n2cccn2)c1 [Compound 24, N-(1-phenyl-3-pyridin-4-yl-1H-pyrazol-5-yl)-3-(1H-pyrazol-1-yl)-4-(trifluoromethyl)benzamide]
9.07	Cc1csc(-c2cc(C(=O)Nc3cc(-c4cnn(C)c4)nn3-c3cc(C)[nH]n3)ccc2C(F)(F)F)n1 [Compound 5, N-(1″,5-dimethyl-1H,1″H-3,1′:3′,4″-terpyrazol-5′-yl)-3-(4-methyl-1,3-thiazol-2-yl)-4-(trifluoromethyl)benzamide]
5.55	Cn1ccc(-c2cc(C(=O)Nc3snnc3-c3ccccc3)ccc2C(F)(F)F)n1 [Compound 19, 3-(1-methyl-1H-pyrazol-3-yl)-N-(4-phenyl-1,2,3-thiadiazol-5-yl)-4-(trifluoromethyl)benzamide]
6.62	O=C(Nc1cc(-c2ccncc2)nn1-c1cc(C(F)(F)F)n[nH]1)c1ccc(Cl)c(-c2cc[nH]n2)c1 [Compound 41, 4-chloro-3-(1H-pyrazol-3-yl)-N-[3-pyridin-4-yl-5′-(trifluoromethyl)-2′H-1,3′-bipyrazol-5-yl]benzamide]
5.91	O=C(Nc1cc(-c2ccncc2)nn1-c1ccc(F)cc1)c1ccc(C(F)(F)F)c(-c2cc[nH]c(=O)c2)c1 [Compound 47, N-[1-(4-fluorophenyl)-3-pyridin-4-yl-1H-pyrazol-5-yl]-3-(2-oxo-1,2-dihydropyridin-4-yl)-4-(trifluoromethyl)benzamide]
8.62	Cn1ccc(-c2cc(C(=O)Nc3cc(CC(N)=O)nn3-c3ccc(F)cc3)c(F)cc2C(F)(F)F)n1 [Compound 111, N-(3-(2-amino-2-oxoethyl)-1-(4-fluorophenyl)-1H-pyrazol-5-yl)-2-fluoro-5-(1-methyl-1H-pyrazol-3-yl)-4-(trifluoromethyl)benzamide]
9.09	Cc1cc(NC(=O)c2cc(-c3ccn(C)n3)c(C(F)(F)F)cc2Cl)n(-c2cc(C)[nH]n2)n1 [Compound 48, 2-chloro-N-(3,5′-dimethyl-1′H-1,3′-bipyrazol-5-yl)-5-(1-methyl-1H-pyrazol-3-yl)-4-(trifluoromethyl)benzamide]
8.49	Cn1ccc(-c2cc(C(=O)Nc3cc(-c4ccncc4)nn3-c3cc(C(F)(F)F)n[nH]3)ccc2Cl)n1 [Compound 40, 4-chloro-3-(1-methyl-1H-pyrazol-3-yl)-N-[3-pyridin-4-yl-5′-(trifluoromethyl)-2′H-1,3′-bipyrazol-5-yl]benzamide]
